# Laboratory results taken from patent publication US20210177889A1, “GASEOUS PHARMACEUTICAL COMPOSITION FOR HYPERTENSION THERAPY” (KEIO UNIVERSITY, priority 2019, published 2021).
# Experiments:
# [1] = tested on: hypertension attributed to 5/6 nephrectomy; experiment: Continuous telemetry blood pressure monitoring after 5/6 nephrectomy with daily H2 inhalation; format: in vivo, Lewis rat
# Source text: In order to monitor continuous blood pressure fluctuation, telemetry transmitters were implanted into rats. Specifically, rats were anesthetized with isoflurane, and the left groin was disinfected with 1% chlorhexidine. An incision of about 1.5 cm was made in the left groin, the left femoral artery was exposed, and a telemetry transmitter (HD-S10, Physiotel HD Telemetry, Data Science International) catheter was inserted into the left femoral artery. The tip of the transmitter catheter was placed in the abdominal aorta caudally from the branch of the renal artery. The transmitter body was inserted into a subcutaneous pocket made in the left lower back, and the skin was sutured. All surgical intervention was performed under sterile conditions. In order to elicit renal hypertension, 5/6 nephrectomy was carried out with slight modification to previously described methods (Nephrology (Carlton) 19, 552-561; 10.1111/nep.12279 (2014); J. Am. Soc. Nephrol. 4, 2023-2031 (1994); and Kidney Int. 40, 29-34; 10.1038/ki.1991.175 (1991).). Briefly, rats were anesthetized by isoflurane inhalation (induction at 4% and maintenance at 1.5%), and upper midline laparotomy of about 4 cm was carried out. Surgical operation was performed under a microscope, the left renal artery branch was identified, and selectively ligated with 7-0 silk at a position as close as possible to the left kidney so that macroscopic infarction is caused in about ⅔ of the left renal cortex. In the first pilot research (FIGS. 1a and 2), a high-temperature cautery pen (AA11, Bovie, Tenn., U.S.A.) was used to add the resection of the infarcted portion of the kidney. Subsequently, the right renal artery, the renal vein, and the urinary duct was ligated with 4-0 silk, and the right kidney were resected. The abdominal wall and the skin were closed with a 4-0 nylon thread. The anesthetic time was uniformly 30 minutes in all rats. H2 gas (1.3% H2+21% O2+77.7 N2) and control gas (21% O2+79% N2) were filled into gas cylinders in advance at a factory. The H2 group and the control group were allowed to inhale the H2 gas and the control gas that were mixed in advance. All animals were allowed to inhale the assigned gas at 10 L/minute for 1 hour in an established anesthesia box, and inhaled for an additional three minutes to purge the box (i.e. a total of 63 minutes). In the nephrectomy model and SHR, gas inhalation was repeated every day for 4 weeks and 2 weeks, respectively. In order to investigate the time course necessary for H2 gas to exert therapeutic effect, rats implanted with telemetry (8 weeks-old; 3 for each group) were subjected to 5/6 nephrectomy, and the blood pressure fluctuation was continuously monitored (FIG. 1b). In the first gas inhalation immediately after 5/6 nephrectomy, the blood pressure of the H2 gas group was reduced compared to the control group (117.4±1.8 mmHg vs. 125.6±4.7 mmHg, P=0.04). […] Before the start of inhalation on Day 2, there was no difference in blood pressure between the two groups. […] To examine the anti-hypertensive effect of H2 in more detail, chronic and continuous monitoring of blood pressure using a non-invasive method with a wireless implantable telemetry system (FIG. 5a) was conducted. Gas inhalation was started on the day of 5/6 nephrectomy and continued for 4 weeks. Again, there was no difference in the time course of change in renal function between the two groups.
# [2] = tested on: hypertension established after 5/6 nephrectomy; experiment: Therapeutic effect of delayed H2 inhalation on hypertension established after 5/6 nephrectomy (tail-cuff); format: in vivo, Lewis rat; details: N=17
# Protocol: At about 24 hours after the final gas inhalation of 5/6 nephrectomized rats, blood pressure and heart rate were non-invasively measured using the tail-cuff pressure measurement method (BP-98A, Softron). The hemodynamics parameter was measured three times, and the median was adopted as the representative value. In order to elicit renal hypertension, 5/6 nephrectomy was carried out with slight modification to previously described methods (Nephrology (Carlton) 19, 552-561; 10.1111/nep.12279 (2014); J. Am. Soc. Nephrol. 4, 2023-2031 (1994); and Kidney Int. 40, 29-34; 10.1038/ki.1991.175 (1991).). Briefly, rats were anesthetized by isoflurane inhalation (induction at 4% and maintenance at 1.5%), and upper midline laparotomy of about 4 cm was carried out. Surgical operation was performed under a microscope, the left renal artery branch was identified, and selectively ligated with 7-0 silk at a position as close as possible to the left kidney so that macroscopic infarction is caused in about ⅔ of the left renal cortex. In the first pilot research (FIGS. 1a and 2), a high-temperature cautery pen (AA11, Bovie, Tenn., U.S.A.) was used to add the resection of the infarcted portion of the kidney. Subsequently, the right renal artery, the renal vein, and the urinary duct was ligated with 4-0 silk, and the right kidney were resected. […]
smiles,measurement,setting,value
"[2H][2H] [H2 gas, Molecular hydrogen (H2)]",time course of change in renal function between the two groups,"[1]; 5/6 nephrectomy, 4 weeks of gas inhalation",no difference
same,blood pressure before inhalation compared to the control group,"[1]; after Week 1 of daily inhalation, telemetry",began to decrease
same,difference in blood pressure between H2 and control groups when inhalation was stopped,"[1]; after the first gas inhalation, telemetry",immediately disappeared
same,blood pressure in the first gas inhalation,"[1]; first inhalation immediately after 5/6 nephrectomy, telemetry, N=3, P=0.04 vs control (125.6±4.7)",117.4±1.8 mmHg
same,decrease in blood pressure with longer period of gas inhalation vs control 5/6 nephrectomy,"[1]; inhalation from the day of 5/6 nephrectomy for 4 weeks, telemetry, P<0.05",greater decrease
same,difference in blood pressure between the two groups before the start of inhalation on Day 2,"[1]; telemetry, before inhalation, Day 2",no difference
same,duration of hypotensive effect,"[2]; delayed inhalation, one hour daily for 4 weeks",continued through the inhalation duration
same,blood pressure (established hypertension),"[2]; inhalation started 3 weeks after 5/6 nephrectomy, one week after starting H2 inhalation, no statistically significant difference",began to decrease
